Among the data in patent US7329664B2, “Substituted (7-pyridyl-4-phenylamino-quinazolin-2-yl)-methanol analogues” (Neurogen Corporation, priority 2003, dated 2008) are IC50 and EC90 values, retold here.

The target in assay [1] is T1, human capsaicin receptor (Homo sapiens, UniProt Q8NER1).
T1 construct: transfected with the pBK-CMV expression construct encoding the full length human capsaicin receptor; expressed in transfected cells
Put plainly: Calcium mobilization assay, capsaicin receptor antagonist activity (Example 6). It counts as cell-based. The settings on record: read-out: IC50 in standard assay of capsaicin receptor activity. On the procedure:
Human embryonic kidney (HEK293) cells were transfected with the pBK-CMV expression construct encoding the full length human capsaicin receptor using standard methods. The transfected cells were selected for two weeks in media containing G418 (400 μg/ml) to obtain a pool of stably transfected cells. Independent clones were isolated from this pool by limiting dilution to obtain clonal stable cell lines for use in subsequent experiments.
This Example illustrates representative calcium mobilization assays for use in evaluating test compounds for agonist and antagonist activity.
Cells transfected with expression plasmids (as described in Example 4) and thereby expressing human capsaicin receptor are seeded and grown to 70-90% confluency in FALCON black-walled, clear-bottomed 96-well plates (#3904, BECTON-DICKINSON, Franklin Lakes, N.J.). The culture medium is emptied from the 96 well plates and FLUO-3 AM calcium sensitive dye (Molecular Probes, Eugene, Oreg.) is added to each well (dye solution: 1 mg FLUO-3 AM, 440 μL DMSO and 440 μl 20% pluronic acid in DMSO, diluted 1:250 in Krebs-Ringer HEPES (KRH) buffer (25 mM HEPES, 5 mM KCl, 0.96 mM NaH2PO4, 1 mM MgSO4, 2 mM CaCl2, 5 mM glucose, 1 mM probenecid, pH 7.4), 50 μl diluted solution per well). […] After the incubation, the dye is emptied from the plates, and the cells are washed once with KRH buffer, and resuspended in KRH buffer.
(§1) To measure the ability of a test compound to agonize or antagonize a calcium mobilization response in cells expressing capsaicin receptors to capsaicin or other vanilloid agonist, the EC50 of the agonist capsaicin is first determined. An additional 20 μl of KRH buffer and 1 μl DMSO is added to each well of cells, prepared as described above. 100 μl capsaicin in KRH buffer is automatically transferred by the FLIPR instrument to each well. Capsaicin-induced calcium mobilization is monitored using either FLUOROSKAN ASCENT (Labsystems; Franklin, Mass.) or FLIPR (fluorometric imaging plate reader system; Molecular Devices, Sunnyvale, Calif.) instruments. […] In this equation, y is the maximum fluorescence signal, x is the concentration of the agonist or antagonist (in this case, capsaicin), a is the Emax, b corresponds to the EC50 value and c is the Hill coefficient. […]
Test compounds are dissolved in DMSO, diluted in 20 μl KRH buffer so that the final concentration of test compounds in the assay well is between 1 μM and 5 μM, and added to cells prepared as described above. […] Just prior to determining the fluorescence response, 100 μl capsaicin in KRH buffer at twice the EC50 concentration determined as described above is automatically added by the FLIPR instrument to each well of the 96 well plate for a final sample volume of 200 μl and a final capsaicin concentration equal to the EC50. […]

The target of assay [2] is T1, human capsaicin receptor. Put plainly: Calcium mobilization assay, agonist response to capsaicin (Example 6). In kind it is cell-based. The settings on record: cells expressing human capsaicin receptor, positive control; read-out: approximate EC90 concentration. As to the method: Cells transfected with expression plasmids (as described in Example 4) and thereby expressing human capsaicin receptor are seeded and grown to 70-90% confluency in FALCON black-walled, clear-bottomed 96-well plates (#3904, BECTON-DICKINSON, Franklin Lakes, N.J.). The culture medium is emptied from the 96 well plates and FLUO-3 AM calcium sensitive dye (Molecular Probes, Eugene, Oreg.) is added to each well (dye solution: 1 mg FLUO-3 AM, 440 μL DMSO and 440 μl 20% pluronic acid in DMSO, diluted 1:250 in Krebs-Ringer HEPES (KRH) buffer (25 mM HEPES, 5 mM KCl, 0.96 mM NaH2PO4, 1 mM MgSO4, 2 mM CaCl2, 5 mM glucose, 1 mM probenecid, pH 7.4), 50 μl diluted solution per well). […]
as §1, with “An additional 20 μl of KRH buffer and 1 μl DMSO is added to each well of cells, prepared as described above. 100 μl capsaicin in KRH buffer is automatically transferred by the FLIPR instrument to each well.” left out

What is called IC50 is the concentration needed to halve the response being measured.

T1 sequence (Q8NER1 whole entry): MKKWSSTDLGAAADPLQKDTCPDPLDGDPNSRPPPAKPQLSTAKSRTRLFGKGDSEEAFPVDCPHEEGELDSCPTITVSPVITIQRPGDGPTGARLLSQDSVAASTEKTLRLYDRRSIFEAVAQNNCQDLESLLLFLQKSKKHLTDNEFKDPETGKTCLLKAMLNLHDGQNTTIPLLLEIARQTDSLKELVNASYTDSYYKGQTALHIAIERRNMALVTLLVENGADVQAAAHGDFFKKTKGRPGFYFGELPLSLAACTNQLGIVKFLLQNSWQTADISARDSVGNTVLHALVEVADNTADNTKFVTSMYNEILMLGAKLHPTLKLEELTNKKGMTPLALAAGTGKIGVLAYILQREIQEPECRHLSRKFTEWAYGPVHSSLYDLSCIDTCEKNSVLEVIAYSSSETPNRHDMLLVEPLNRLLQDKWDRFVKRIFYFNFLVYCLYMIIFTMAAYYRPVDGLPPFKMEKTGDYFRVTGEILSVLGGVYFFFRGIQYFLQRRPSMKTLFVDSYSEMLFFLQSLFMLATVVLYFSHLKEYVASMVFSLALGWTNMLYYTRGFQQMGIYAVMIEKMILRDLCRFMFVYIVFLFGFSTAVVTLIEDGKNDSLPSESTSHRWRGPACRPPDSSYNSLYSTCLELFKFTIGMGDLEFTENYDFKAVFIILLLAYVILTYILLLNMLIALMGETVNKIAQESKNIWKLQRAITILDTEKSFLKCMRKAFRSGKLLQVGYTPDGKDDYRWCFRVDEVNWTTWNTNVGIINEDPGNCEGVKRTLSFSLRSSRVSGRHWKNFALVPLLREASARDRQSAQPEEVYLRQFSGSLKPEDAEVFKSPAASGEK

In the case of `CC(C)COCc1nc(Nc2ccc(C(F)(F)F)cn2)c2ccc(-c3ncccc3C(F)(F)F)nc2n1` [Compound 132, [2-lsobutoxymethyl-7-(3-trifluoromethyl-pyridin-2-yl)-pyrido[2,3-d]pyrimidin-4-yl]-(5-trifluoromethyl-pyridin-2-yl)-amine], the IC50 on human capsaicin receptor [1] is less than 10 nM. Same read-out and setting: the result for `COCc1nc(Nc2ccc(C(F)(F)F)cn2)c2ccc(-c3ncccc3C(F)(F)F)nc2n1` [Compound 133, [2-Methoxymethyl-7-(3-trifluoromethyl-pyridin-2-yl)-pyrido[2,3-d]pyrimidin-4-yl]-(5-trifluoromethy1-pyridin-2-yl)-amine] reads less than 10 nM; that for `COCc1nc(Nc2ccc(C(F)(F)F)cc2)c2ccc(-c3ncccc3C)cc2n1` [Compound 3, [2-Methoxymethyl-7-(3-methylpyridin-2-yl)-quinazolin-4-yl)-(4-trifluoromethylphenyl)-amine], less than 10 nM. With `COc1cc(CNC(=O)CCCC/C=C/C(C)C)ccc1O` [capsaicin], at human capsaicin receptor [2], the EC90 was approximately 100 nM.

`COCc1nc(Nc2ccc(C(F)(F)F)cc2)c2ccc(-c3ncccc3Cl)nc2n1` [Compound 2, [7-(3-Chloro-pyridin-2-yl)-2-methoxymethyl-pyrido[2,3-d]pyrimidin-4-yl]-(4-trifluoromethyl-phenyl)-amine]: the IC50 at human capsaicin receptor [1] is less than 10 nM.
